Results as given in paper PMC11061835, “Elucidating the Mechanism of Metabolism of Cannabichromene by Human Cytochrome P450s” (Journal of Natural Products, 2024).
Several values for one entry are separate records, joined by “and”; a condition that tells them apart may be missing. Identical values can stand only once.

Legend:
[1] = test system: BV2 microglial cells, stimulated with lipopolysaccharide (LPS); test: Nitric oxide determination (Griess assay) in LPS-stimulated BV2 cells; type: cell-based, mouse; details: 0.1, 1.0, 2.5, 5.0 μM, vs cells treated with LPS only
Method: BV2 cells were a gift from Dr. Bob McCusker, University of Illinois. They were cultured and maintained at 37 °C in a humidified atmosphere of 95% air and 5% CO2 in high-glucose Dulbecco’s modified Eagle’s (DMEM) medium (Cat No. 10-013-CV, Corning Life Sciences), supplemented with 5% heat-inactivated fetal bovine serum (FBS), streptomycin (100 μg/mL), and penicillin (100 units/mL). Stocks of all the minor cannabinoids were made in ethanol and stored at −80 °C and diluted as required before cell treatment. A final concentration of ethanol was maintained at 0.1% in the cell culture experiments.
First, cell viability of BV2 cells was assessed after treatment with cannabinoids, at various concentrations (0.1, 1.0, 2.5, 5.0 μM), utilizing Cayman’s MTT assay. […] Once viability was determined, we measured the production of pro-inflammatory markers such as nitric oxide (NO), interleukin 6 (IL-6), tumor necrosis factor alpha (TNFα), and arginase 1 (Arg1) after BV2 cells were treated with minor cannabinoids and then stimulated with lipopolysaccharide (LPS) to evoke an inflammatory response.
BV-2 cells were plated at a density of 50 000 cells/well in a 24-well plate at 37 °C under controlled conditions. Cells were pretreated with the minor cannabinoids at various concentrations (0.1, 1.0, 2.5, 5.0 μM) for 4 h and then stimulated with LPS for 24 h. The culture medium was removed and saved for the determination of nitric oxide production through Cayman’s Griess assay. IL-6, TNFα, and Arginase 1 production was also determined utilizing collected medium. For the Greiss assay, in a 96-well plate, 100 μL of culture medium was used, and 50 μL of both Greiss reagent-1 and Greiss reagent-2 was added and incubated for 10 min. The absorbance was measured at 540 nm using a plate reader (SpectraMax iD5). The quantification was done using a calibration curve that was generated using the sodium nitrite standard obtained from Cayman Chemicals.

CYP2C8 with CPR = target: T1, CYP2C8 with CPR (Homo sapiens, UniProt P10632); test: NADPH activity assay, CYP2C8 with CPR; type: biochemical; details: CYP2C8, CBC 50 μM vs substrate-free
T1 construct: His-tag; made in house; host or cells: E. coli DH-5α with pTGro7 plasmid (CYP)
T1 sequence (P10632 1-490): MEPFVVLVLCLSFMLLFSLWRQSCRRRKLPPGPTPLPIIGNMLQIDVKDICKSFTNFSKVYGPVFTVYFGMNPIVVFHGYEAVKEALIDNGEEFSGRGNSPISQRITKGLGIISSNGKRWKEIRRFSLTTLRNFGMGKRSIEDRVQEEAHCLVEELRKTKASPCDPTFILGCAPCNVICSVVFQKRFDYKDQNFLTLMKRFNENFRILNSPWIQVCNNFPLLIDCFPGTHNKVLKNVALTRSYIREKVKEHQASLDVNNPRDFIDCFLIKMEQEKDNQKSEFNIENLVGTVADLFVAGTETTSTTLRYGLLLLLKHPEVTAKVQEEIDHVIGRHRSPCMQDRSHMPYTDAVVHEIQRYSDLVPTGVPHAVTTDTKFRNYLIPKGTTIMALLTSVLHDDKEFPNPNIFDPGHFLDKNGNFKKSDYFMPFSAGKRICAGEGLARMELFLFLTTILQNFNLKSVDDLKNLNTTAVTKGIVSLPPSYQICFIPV
T1 sequence (P16435 1-677 partner): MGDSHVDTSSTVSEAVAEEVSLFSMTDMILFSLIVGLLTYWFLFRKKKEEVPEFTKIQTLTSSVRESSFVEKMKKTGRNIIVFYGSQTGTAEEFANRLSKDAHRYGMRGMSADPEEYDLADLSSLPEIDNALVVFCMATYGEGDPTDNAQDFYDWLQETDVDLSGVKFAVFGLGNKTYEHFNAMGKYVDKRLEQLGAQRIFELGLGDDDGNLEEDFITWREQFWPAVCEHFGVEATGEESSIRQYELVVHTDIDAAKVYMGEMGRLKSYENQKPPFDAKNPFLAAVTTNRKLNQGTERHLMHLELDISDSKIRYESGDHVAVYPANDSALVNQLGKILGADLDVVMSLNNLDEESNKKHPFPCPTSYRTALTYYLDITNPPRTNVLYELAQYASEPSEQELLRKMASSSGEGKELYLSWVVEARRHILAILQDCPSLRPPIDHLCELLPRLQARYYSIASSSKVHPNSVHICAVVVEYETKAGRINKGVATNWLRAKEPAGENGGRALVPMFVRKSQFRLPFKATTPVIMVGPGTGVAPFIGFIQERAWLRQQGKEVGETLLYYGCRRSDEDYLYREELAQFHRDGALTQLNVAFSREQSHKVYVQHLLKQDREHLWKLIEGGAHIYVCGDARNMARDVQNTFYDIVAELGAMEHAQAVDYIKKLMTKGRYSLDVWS
Method: (§1) CYP-mediated NADPH oxidation was measured using kinetics mode in a Cary 300 UV–vis spectrometer (Agilent Technologies). 0.2 μM (final concentration) of CYP was taken in 0.1 M potassium phosphate buffer (pH 7.4) and incubated with 0.6 μM (final concentration) of CPR for 5 min with a reaction volume of 400 μL. The reaction was initiated with 200 μM of NADPH, and the absorption change was monitored over 10 min at 340 nm. The rate of NADPH consumption (or NADPH to NADP^+ conversion) was calculated by taking the molar extinction coefficient as 6.22 mM^–1 cm^–1 at 340 nm. To estimate the change in NADPH oxidation in the presence of CBC, both CYP and CPR were further incubated using CBC (final concentration 50 μM) for 5 min followed by measuring the change in absorbance at 340 nm as discussed earlier.

CYP2J2 with CPR = target: T2, CYP2J2 with CPR (Homo sapiens, UniProt P51589); test: NADPH activity assay, CYP2J2 with CPR; type: biochemical
T2 construct: His-tag; made in house; host or cells: E. coli DH-5α with pTGro7 plasmid (CYP)
T2 sequence (P51589 1-502): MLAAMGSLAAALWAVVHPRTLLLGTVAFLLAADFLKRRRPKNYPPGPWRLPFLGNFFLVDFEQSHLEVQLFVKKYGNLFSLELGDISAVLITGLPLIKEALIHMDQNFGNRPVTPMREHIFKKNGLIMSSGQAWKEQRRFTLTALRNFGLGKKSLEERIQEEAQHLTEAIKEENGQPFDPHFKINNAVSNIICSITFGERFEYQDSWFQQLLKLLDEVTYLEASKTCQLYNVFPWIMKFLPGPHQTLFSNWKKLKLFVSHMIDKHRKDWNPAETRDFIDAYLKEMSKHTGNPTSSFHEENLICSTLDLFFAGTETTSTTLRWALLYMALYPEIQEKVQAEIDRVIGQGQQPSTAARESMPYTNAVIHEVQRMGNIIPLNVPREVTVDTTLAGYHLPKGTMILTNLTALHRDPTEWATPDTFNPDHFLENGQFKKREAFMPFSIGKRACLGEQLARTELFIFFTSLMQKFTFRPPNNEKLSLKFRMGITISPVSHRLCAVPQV
T2 sequence (P16435 1-677 partner): T1 sequence (P16435 1-677 partner)
Method: as §1

SMILES	effect on NO release/production [1]	percentage increase of NADPH consumption in the presence of CBC (CYP2C8 with CPR) [%]	NADPH rate (CYP+CPR+CBC) (CYP2J2 with CPR; CYP2J2, CBC 50 μM)	percentage increase of NADPH consumption in the presence of CBC (CYP2J2 with CPR; CYP2J2, CBC 50 μM vs substrate-free) [%]
CCCCCc1cc(O)c2c(c1)OC(C)(CC/C=C(\C)CO)C=C2 (stereo not shown) [8′-hydroxy-CBC]	elevated levels			
CCCCCc1cc(O)c2c(c1)OC(C)(CCC=C(C)C)C=C2 (stereo not shown) [CBC, Cannabichromene]		~60	21.7 nmol/min/nmol and ~20 nmol/min/nmol	~60
